Measured values from patent US8916599B2, “1H-benz imidazole-5-carboxamides as anti-inflammatory agents” (Orexo AB, priority 2008, dated 2014).

What follows are molecules tested against T1, recombinant human mPGES-1 (Homo sapiens, UniProt O14684) (assay: mPGES-1 inhibition test (microsomes, PGH2 substrate, HTRF detection of PGE2)). Conditions: inhibition of mPGES-1 at 10 μM.
T1 construct: made in house; host or cells: Rosetta E. coli (microsomal/membrane fraction)
T1 sequence (O14684 1-152): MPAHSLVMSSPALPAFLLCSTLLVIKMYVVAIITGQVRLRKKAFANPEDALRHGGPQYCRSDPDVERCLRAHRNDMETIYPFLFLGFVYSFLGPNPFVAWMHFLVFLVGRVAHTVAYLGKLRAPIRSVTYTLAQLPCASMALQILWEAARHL
Assay type: biochemical
Method in brief: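 E. coli microsomal enzyme, 0.1 M KPi pH 7.4 + 2.5 mM GSH; cpd (DMSO) 25 min RT; PGH2 1 min; acidic FeCl2 stop. Dilute 750-fold, HTRF (d2/Eu-cryptate anti-PGE2, overnight 4 °C), 665/620 ratio vs PGE2 standard curve.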

SMILES	inhibition at 10 µM [%]
Cc1cc(Cl)cc(Cl)c1Nc1nc2cc(C(=O)Nc3ccc(Br)cc3)ccc2n1C [Example 402, N-(4-Bromophenyl)-2-(2,4-dichloro-6-methylphenylamino)-1-methyl-1H-benzimidazole-5-carboxamide]	100
Cn1c(Nc2c(F)cccc2Cl)nc2cc(C(=O)NC3CCCC(C)(C)C3)c(F)cc21 (centres unmarked) [Example 404, 2-(2-Chloro-6-fluorophenylamino)-N-(3,3-dimethylcyclohexyl)-6-fluoro-1-methyl-1H-benzimidazole-5-carboxamide]	100
Cn1c(Nc2c(Cl)cccc2Cl)nc2cc(C(=O)Nc3cccc(Cl)c3)cc(Br)c21 [Example 405, 7-Bromo-N-(3-chlorophenyl)-2-(2,6-dichlorophenylamino)-1-methyl-1H-benzimidazole-5-carboxamide]	100
COc1cc2[nH]c(Nc3c(Cl)cccc3Cl)nc2cc1C(=O)NCc1ncccc1C1CC1 [Example 407, N-((3-Cyclopropylpyridin-2-yl)-methyl)-2-(2,6-dichlorophenylamino)-6-methoxy-1H-benzimidazole-5-carboxamide]	100
CC(C)CCCNC(=O)c1cc2nc(Nc3c(Cl)cccc3Cl)n(C)c2cc1F [Example 408, 2-(2,6-Dichlorophenylamino)-6-fluoro-1-methyl-N-(4-methylpentyl)-1H-benzimidazole-5-carboxamide]	100
CCC1CCC(NC(=O)c2cc3nc(Nc4c(Cl)cccc4Cl)n(C)c3cc2F)C1 (centres unmarked) [Example 412, 2-(2,6-Dichlorophenylamino)-N-(3-ethylcyclopentyl)-6-fluoro-1-methyl-1H-benzimidazole-5-carboxamide]	100
Cn1c(Nc2c(Cl)cccc2Cl)nc2cc(C(=O)NC3CCC4(CC4)C3)c(F)cc21 (centres unmarked) [Example 415, 2-(2,6-Dichlorophenylamino)-6-fluoro-1-methyl-N-(spiro[2.4]heptan-5-yl)-1H-benzimidazole-5-carboxamide]	100
CCCC[C@@H](C)NC(=O)c1cc2nc(Nc3c(Cl)cccc3Cl)n(C)c2cc1F [Example 416, (R)-2-(2,6-Dichlorophenylamino)-6-fluoro-N-(hexan-2-yl)-1-methyl-1H-benzimidazole-5-carboxamide]	100

Other lines, results leading:

inhibition at 10 µM [%]	SMILES
100	Cc1c[n+]([O-])c(NC(=O)c2ccc3nc(Nc4c(Cl)cccc4Cl)[nH]c3c2)cc1Cl [Example 418, 4-Chloro-2-(2-(2,6-dichlorophenylamino)-1H-benzimidazole-6-carboxamido)-5-methylpyridine 1-oxide]
100	Cn1c(Nc2c(Cl)cccc2Cl)nc2cc(C(=O)NC3CCC4(CC3)CC4)c(F)cc21 [Example 419, 2-(2,6-Dichlorophenylamino)-6-fluoro-1-methyl-N-(spiro[2.5]octan-6-yl)-1H-benzimidazole-5-carboxamide]
100	Cn1c(Nc2c(Cl)cc(F)cc2Cl)nc2cc(C(=O)NC3CCC(C)(C)CC3)ccc21 [Example 420, 2-(2,6-Dichloro-4-fluorophenylamino)-N-(4,4-dimethylcyclohexyl)-1-methyl-1H-benzimidazole-5-carboxamide]
99	Cc1cnc(NC(=O)c2cc3nc(Nc4c(Cl)cccc4Cl)n(C)c3cc2F)cc1C [Example 421, 2-(2,6-Dichlorophenylamino)-N-(4,5-dimethylpyridin-2-yl)-6-fluoro-1-methyl-1H-benzimidazole-5-carboxamide]
100	Cn1c(Nc2c(Cl)cccc2Cl)nc2cc(C(=O)NCc3ncccc3C3CC3)c(F)cc21 [Example 422, N-((3-Cyclopropylpyridin-2-yl)methyl)-2-(2,6-dichlorophenylamino)-6-fluoro-1-methyl-1H-benzimidazole-5-carboxamide]
100	Cn1c(Nc2cc(C(F)(F)F)ccc2Cl)nc2cc(C(=O)Nc3ccc(Br)cc3)ccc21 [Example 423, N-(4-Bromophenyl)-2-(2-chloro-5-trifluoromethyl-phenylamino)-1-methyl-1H-benzimidazole-5-carboxamide]
